According to patent US6979664B1, “Composition for accelerating seed germination and plant growth” (Bios Agriculture Inc., priority 1998, dated 2005):

Columns and labels:
Format in all cases: in vivo
Beta vulgaris = assay: seedling emergence at 25° C.
From the text: (§1) Plastic pots (7.5 cm dia) were filled with 15 g of autoclaved vermiculite. Seeds of corn (Zea mays—Poaceae), bean (Phaseolus vulgaris—Fabaceae), canola (Brassica napus—Brassicaceae), cucumber (Cucumis sativus—Cucurbitaceae), cantaloupe (Cucumis melo—Cucurbitaceae), cotton (Gossypium sp.—Malvaceae), lettuce (Lactuca sativa—Asteraceae), beet (Beta vulgaris—Chenopodiaceae), and soybean (Glycine max—Fabaceae), were placed at 2.5 cm deep at the rate of 5 or 10 seeds per pot. Pots were irrigated with either 25 mL of LCO solution at different concentrations (10^−6–10^−14M) or aqueous acetonitrile or water, as controls. Acetonitrile was included as one of the controls since LCO was purified in this solvent (see Example 3), after 4 days the pots were irrigated with 10 mL of water once every two days. Each treatment had 4 replications in a randomized block design. Pots were placed on a green house bench maintained at 25±2° C. with a day/night cycle 16/8 h and relative humidity of 70%, or in a growth chamber set at 15° C. with a 16:8 day/night cycle. […] As defined above, seedling emergence has occurred when growth of the plant can be observed above the rooting medium surface. The percent emergence was calculated. The data were analyzed with Statistical Analysis System, version 6.12 (SAS institute Inc. Cary, N.C., USA).

Cucumis melo = assay: seedling emergence at 25° C.
From the text: as §1

Glycine max = assay: seedling emergence at 25° C.
From the text: as §1

Gossypium sp. = assay: seedling emergence at 25° C.
From the text: as §1

Phaseolus vulgaris = assay: seedling emergence at 25° C.
From the text: as §1

Zea mays = assay: early growth (after seedling emergence) of Zea mays; conditions: for Leaf area / No. of roots / Root dry wt./plant / Root length / Shoot dry wt./plant / Spent seed dry wt.: 15 DAS
From the text: Plastic pots (7.5 cm dia) were filled with 15 g of autoclaved vermiculite. Seeds of corn (Zea mays—Poaceae), bean (Phaseolus vulgaris—Fabaceae), canola (Brassica napus—Brassicaceae), cucumber (Cucumis sativus—Cucurbitaceae), cantaloupe (Cucumis melo—Cucurbitaceae), cotton (Gossypium sp.—Malvaceae), lettuce (Lactuca sativa—Asteraceae), beet (Beta vulgaris—Chenopodiaceae), and soybean (Glycine max—Fabaceae), were placed at 2.5 cm deep at the rate of 5 or 10 seeds per pot. […] Acetonitrile was included as one of the controls since LCO was purified in this solvent (see Example 3), after 4 days the pots were irrigated with 10 mL of water once every two days. Each treatment had 4 replications in a randomized block design. Pots were placed on a green house bench maintained at 25±2° C. with a day/night cycle 16/8 h and relative humidity of 70%, or in a growth chamber set at 15° C. with a 16:8 day/night cycle. The percent seedling emergence was recorded at 4 days after sowing (DAS). Plant height was recorded from 4 DAS to 15 DAS. Plants were harvested at 15 DAS and leaf area, root length and the number of roots per plant were recorded. The plants were then dissected and placed in paper covers and dried at 90° C. for 24 h and the dry weights of roots, shoots and the spent seeds recorded. The data were analyzed with the Statistical Analysis System version 6.12 (SAS institute Inc. Cary, N.C., USA).

Structure (SMILES): CCCCCCC=CCCCCCCCCCC(=O)NC1C(OC2C(CO)OC(OC3C(CO)OC(OC4C(CO)OC(OC5C(COC6OC(C)C(O)C(O)C6OC)OC(O)C(NC(C)=O)C5O)C(NC(C)=O)C4O)C(NC(C)=O)C3O)C(NC(C)=O)C2O)OC(CO)C(O)C1O (centres unmarked) [LCO, NodBj-V(C18:1Δ11)]
- seedling emergence (%) (Beta vulgaris; 10^−7 M): 66.6%
- seedling emergence (%) (Beta vulgaris; 10^−9 M): 66 b %
- seedling emergence (%) (Beta vulgaris; 10^−11 M): 86 b %
- seedling emergence (%) (Beta vulgaris; 10^−13 M): 80 b %
- seedling emergence (%) (Cucumis melo; 10^−7 M): 100 b %
- seedling emergence (%) (Cucumis melo; 10^−9 M): 100 b %
- seedling emergence (%) (Cucumis melo; 10^−11 M): 100 b %
- seedling emergence (%) (Cucumis melo; 10^−13 M): 100 b %
- seedling emergence (%) (Glycine max; 10^−6 M): 65 d %
- seedling emergence (%) (Glycine max; 10^−7 M): 80 bc %
- seedling emergence (%) (Glycine max; 10^−8 M): 90 ab %
- seedling emergence (%) (Glycine max; 10^−9 M): 100 a %
- seedling emergence (%) (Glycine max; 10^−10 M): 70 cd %
- seedling emergence (%) (Glycine max; 10^−11 M): 50 e %
- seedling emergence (%) (Glycine max; 10^−12 M): 80 bc %
- seedling emergence (%) (Glycine max; 10^−13 M): 70 cd %
- seedling emergence (%) (Glycine max; 10^−14 M): 70 cd %
- seedling emergence (%) (Gossypium sp.; 10^−6 M): 88 a %
- seedling emergence (%) (Gossypium sp.; 10^−7 M): 66 ab %
- seedling emergence (%) (Gossypium sp.; 10^−8 M): 88 a %
- seedling emergence (%) (Gossypium sp.; 10^−9 M): 88 a %
- seedling emergence (%) (Gossypium sp.; 10^−10 M): 88 a %
- seedling emergence (%) (Phaseolus vulgaris; 10^−6 M): 67 abc %
- seedling emergence (%) (Phaseolus vulgaris; 10^−7 M): 89 a %
- seedling emergence (%) (Phaseolus vulgaris; 10^−8 M): 78 ab %
- seedling emergence (%) (Phaseolus vulgaris; 10^−9 M): 67 abc %
- seedling emergence (%) (Phaseolus vulgaris; 10^−10 M): 44 abc %
- seedling emergence (%) (Phaseolus vulgaris; 10^−11 M): 22 c %
- seedling emergence (%) (Phaseolus vulgaris; 10^−12 M): 33 bc %
- seedling emergence (%) (Phaseolus vulgaris; 10^−13 M): 33 bc %
- seedling emergence (%) (Phaseolus vulgaris; 10^−14 M): 33 bc %
- Plant height at 15 DAS (Zea mays; LCO 10−^5): 102.9 c mm
- Leaf area (Zea mays; LCO 10−^5): 11.7 cd cm^2
- No. of roots (Zea mays; LCO 10−^5): 6.8 cd
- Root dry wt./plant (Zea mays; LCO 10−^5): 75.7 cd mg
- Root length (Zea mays; LCO 10−^5): 137.0 cd mm
- Shoot dry wt./plant (Zea mays; LCO 10−^5): 41.6 bcd mg
- Spent seed dry wt. (Zea mays; LCO 10−^5): 123.5 bc mg
- Plant height at 15 DAS (Zea mays; LCO 10−^6): 130.4 ab mm
- Leaf area (Zea mays; LCO 10−^6): 18.2 a cm^2
- No. of roots (Zea mays; LCO 10−^6): 7.66 abc
- Root dry wt./plant (Zea mays; LCO 10−^6): 85.1 bc mg
- Root length (Zea mays; LCO 10−^6): 150.8 bc mm
- Shoot dry wt./plant (Zea mays; LCO 10−^6): 51.4 b mg
- Spent seed dry wt. (Zea mays; LCO 10−^6): 90.7 cd mg
- Plant height at 15 DAS (Zea mays; LCO 10−^7): 130.1 ab mm
- Leaf area (Zea mays; LCO 10−^7): 15.7 ab cm^2
- No. of roots (Zea mays; LCO 10−^7): 8.0 ab
- Root dry wt./plant (Zea mays; LCO 10−^7): 96.5 ab mg
- Root length (Zea mays; LCO 10−^7): 153.9 b mm
- Shoot dry wt./plant (Zea mays; LCO 10−^7): 51.6 b mg
- Spent seed dry wt. (Zea mays; LCO 10−^7): 99.5 cd mg
- Plant height at 15 DAS (Zea mays; LCO 10−^8): 142.6 a mm
- Leaf area (Zea mays; LCO 10−^8): 19.3 a cm^2
- No. of roots (Zea mays; LCO 10−^8): 8.4 a
- Root dry wt./plant (Zea mays; LCO 10−^8): 103.4 a mg
- Root length (Zea mays; LCO 10−^8): 187.0 a mm
- Shoot dry wt./plant (Zea mays; LCO 10−^8): 66.2 a mg
- Spent seed dry wt. (Zea mays; LCO 10−^8): 76.3 mg·days
- Plant height at 15 DAS (Zea mays; LCO 10−^9): 134.7 ab mm
- Leaf area (Zea mays; LCO 10−^9): 17.0 ab cm^2
- No. of roots (Zea mays; LCO 10−^9): 7.75 abc
- Root dry wt./plant (Zea mays; LCO 10−^9): 83.3 bc mg
- Root length (Zea mays; LCO 10−^9): 144.4 cbd mm
- Shoot dry wt./plant (Zea mays; LCO 10−^9): 46.8 bc mg
- Spent seed dry wt. (Zea mays; LCO 10−^9): 93.7 cd mg
- Plant height at 15 DAS (Zea mays; LCO 10−^10): 127.1 b mm
- Leaf area (Zea mays; LCO 10−^10): 13.9 bc cm^2
- No. of roots (Zea mays; LCO 10−^10): 7.95 ab
- Root dry wt./plant (Zea mays; LCO 10−^10): 89.5 abc mg
- Root length (Zea mays; LCO 10−^10): 149.1 bc mm
- Shoot dry wt./plant (Zea mays; LCO 10−^10): 51.4 b mg
- Spent seed dry wt. (Zea mays; LCO 10−^10): 89.8 cd mg
- Plant height at 15 DAS (Zea mays; LCO 10−^11): 103.3 mm
- Leaf area (Zea mays; LCO 10−^11): 8.51 def cm^2
- No. of roots (Zea mays; LCO 10−^11): 6.69 cd
- Root dry wt./plant (Zea mays; LCO 10−^11): 74.6 cd mg
- Root length (Zea mays; LCO 10−^11): 132.1 d mm
- Shoot dry wt./plant (Zea mays; LCO 10−^11): 38.0 cde mg
- Spent seed dry wt. (Zea mays; LCO 10−^11): 115.9 bc mg
- Plant height at 15 DAS (Zea mays; LCO 10−^12): 98.3 c mm
- Leaf area (Zea mays; LCO 10−^12): 8.0 def cm^2
- No. of roots (Zea mays; LCO 10−^12): 7.25
- Root dry wt./plant (Zea mays; LCO 10−^12): 84.6 bc mg
- Root length (Zea mays; LCO 10−^12): 137.9 cd mm
- Shoot dry wt./plant (Zea mays; LCO 10−^12): 40.6 bcde mg
- Spent seed dry wt. (Zea mays; LCO 10−^12): 105.4 od mg
- Plant height at 15 DAS (Zea mays; LCO 10−^13): 91.8 cd mm
- Leaf area (Zea mays; LCO 10−^13): 10.4 cde cm^2
- No. of roots (Zea mays; LCO 10−^13): 6.7 cd
- Root dry wt./plant (Zea mays; LCO 10−^13): 85.4 bc mg
- Root length (Zea mays; LCO 10−^13): 130.9 d mm
- Shoot dry wt./plant (Zea mays; LCO 10−^13): 43.6 bc mg
- Spent seed dry wt. (Zea mays; LCO 10−^13): 109.6 cd mg
- Plant height at 15 DAS (Zea mays; LCO 10−^14): 99.9 c mm
- Leaf area (Zea mays; LCO 10−^14): 11.2 cde cm^2
- No. of roots (Zea mays; LCO 10−^14): 7.36 abc
- Root dry wt./plant (Zea mays; LCO 10−^14): 90.2 abc mg
- Root length (Zea mays; LCO 10−^14): 136.8 cd mm
- Shoot dry wt./plant (Zea mays; LCO 10−^14): 46.6 bc mg
- Spent seed dry wt. (Zea mays; LCO 10−^14): 102.9 cd mg
- α-amylase activity in the treated seeds (Zea mays; corn seeds): dramatic increase
- start of seedling emergence after seeding (Zea mays; corn, control 3–4 days): 2 to 3 days
- LCO concentration of optimum effect (Zea mays; early growth of corn (Table 3)): 10^−8 M
